Series [1] has as its system 4T1. Description: Cytotoxicity against mouse 4T1 cells assessed as reduction in cell viability after 48 hrs by MTT assay. The series is classed as functional, cell-based. Particulars: 4T1, 48 h. On the technique in general: Formazan colour is commonly taken as a measure of viable cells.
In series [2] the test system is HGC-27. In words: Cytotoxicity against human HGC27 cells assessed as reduction in cell viability after 48 hrs by MTT assay. It is filed as functional, cell-based. Particulars: HGC-27, 48 h.
Series [3] concerns NCI-H460. In words: Cytotoxicity against human NCI-H460 cells assessed as reduction in cell viability after 48 hrs by MTT assay. The series is classed as functional, cell-based. The settings on record: NCI-H460, 48 h.
For series [4], the system named is HeLa. Description: Cytotoxicity against human HeLa cells assessed as reduction in cell viability after 48 hrs by MTT assay. The series is classed as functional, cell-based.
For series [5], the system named is DU-145. In words: Cytotoxicity against human DU145 cells assessed as reduction in cell viability after 48 hrs by MTT assay. It is filed as functional, cell-based. The settings on record: DU-145, 48 h.
In series [6] the test system is PC-3. Description: Cytotoxicity against human PC3 cells assessed as reduction in cell viability after 48 hrs by MTT assay. The series is classed as functional, cell-based. Particulars: PC-3, 48 h.
Series [7] relates to DU-145. In words: Potency index, ratio of curcumin IC50 to compound IC50 for human DU145 cells. The series is classed as functional.
The subject of series [8] is NCI-H460. Description: Potency index, ratio of curcumin IC50 to compound IC50 for human NCI-H460 cells. The series is classed as functional.
The nature of series [9]: Aqueous solubility in milli-Q water at 2 mg incubated for 5 mins followed by sonication for 1 mins measured after 24 hrs by UV-Visible spectroscopic method. The series is classed as physicochemical.
Series [10] concerns PC-3. Description: Potency index, ratio of curcumin IC50 to compound IC50 for human PC3 cells. The series is classed as functional.

A word on the pIC50: it is the negative decadic logarithm of the IC50, by convention in mol/L.

pIC50: −log10 of the molar value.

Consider `COc1ccc(/C=C/C(=O)/C=C/c2cc3ccccc3nc2Oc2cccc(Cl)c2)c(OC)c1`, for which the pIC50 in [1], in series [2], in [3], in series [4], in series [5] and in series [6] was below 5.00 each time.
Turning to `COc1cc(OC)c(/C=C/C(=O)/C=C/c2cc3ccccc3nc2Oc2ccccc2)c(OC)c1`, the pIC50 in [1], in series [2], in series [3], in series [4], in series [5] and in series [6] was below 5.00 throughout.
Turning to `COc1cc(OC)c(OC)cc1/C=C/C(=O)/C=C/c1cc2ccccc2nc1Oc1ccccc1`, the figures for the “Ratio IC50” value in series [7], in [8] and in series [10] were 3.6, 2.1 and 2.6, respectively. Further, the solubility entry in series [9] is on record as “Soluble”. In addition, the pIC50 in series [1] was 5.12; in [2], 4.98; in series [3], 5.10; in series [4], 4.91; in [5] it was 5.04; in series [6], 5.14.
Regarding `COc1cc(OC)c(/C=C/C(=O)/C=C/c2cc3ccccc3nc2Oc2cccc(Cl)c2)c(OC)c1`, the pIC50 in [1], in series [2], in series [3], in series [4], in [5] and in [6] was below 5.00 in each case.
As to `COc1ccc(OC)c(/C=C/C(=O)/C=C/c2cc3ccccc3nc2Oc2cccc(Cl)c2)c1`, the pIC50 in series [1], in series [2], in series [3], in [4], in series [5] and in series [6] was below 5.00 each time.
For `COc1cc(OC)c(/C=C/C(=O)/C=C/c2cc3ccccc3nc2Oc2ccccc2C(C)C)c(OC)c1`, the pIC50 in series [1], in [2], in series [3], in series [4], in series [5] and in series [6] was below 5.00 throughout.
Consider `COc1ccc(/C=C/C(=O)/C=C/c2cc3ccccc3nc2Oc2ccc(Br)cc2)cc1`, for which the pIC50 in series [1], in series [2], in series [3], in series [4], in [5] and in [6] was below 5.00 each time.
In the case of `COc1ccc(/C=C/C(=O)/C=C/c2cc3ccccc3nc2Oc2ccccc2)c(OC)c1`, the pIC50 in series [1], in series [2], in [3], in series [4], in series [5] and in series [6] was below 5.00 throughout.
For the compound `COc1cc(OC)c(/C=C/C(=O)/C=C/c2cc3ccccc3nc2Oc2ccc(Br)cc2)c(OC)c1`, the pIC50 in series [1], in series [2], in [3], in series [4], in series [5] and in series [6] was below 5.00 in each case.
For `COc1cc(/C=C/C(=O)CC(=O)/C=C/c2ccc(O)c(OC)c2)ccc1O` [CURCUMIN], the solubility entry in series [9] was “Soluble”. Besides, the pIC50 in series [3] is 4.77; in series [5], 4.48; in series [6], 4.73.
On to `COc1cc(OC)c(/C=C/C(=O)/C=C/c2cc3ccccc3nc2Cl)c(OC)c1`, for which the pIC50 in series [1], in series [2], in [3], in series [4], in [5] and in [6] was below 5.00 in each case.
As to `COc1ccc(/C=C/C(=O)/C=C/c2cc3ccccc3nc2Oc2ccccc2)cc1`, the pIC50 in series [1], in series [2], in series [3], in [4], in series [5] and in [6] was below 5.00 throughout.
As to `COc1ccc(/C=C/C(=O)/C=C/c2cc3ccccc3nc2Oc2ccccc2)cc1OC`, the pIC50 in series [1], in series [2], in series [3], in series [4], in series [5] and in series [6] was below 5.00 throughout.
With `COc1ccc(OC)c(/C=C/C(=O)/C=C/c2cc3ccccc3nc2Oc2ccc(Br)cc2)c1`, the pIC50 in series [1], in [2], in [3], in series [4], in series [5] and in series [6] was below 5.00 throughout.
On to `COc1cc(OC)c(OC)cc1/C=C/C(=O)/C=C/c1cc2ccccc2nc1Oc1cccc(Cl)c1`, for which the pIC50 in series [1], in series [2], in series [3], in [4], in [5] and in [6] was below 5.00 in each case.
With `COc1ccc(/C=C/C(=O)/C=C/c2cc3ccccc3nc2Oc2cccc(Cl)c2)cc1OC`, the pIC50 in series [1], in [2], in [3], in series [4], in series [5] and in [6] was below 5.00 each time.
Consider `COc1ccc(/C=C/C(=O)/C=C/c2cc3ccccc3nc2Cl)cc1`, for which the negative logarithm of the IC50 (pIC50) in [1], in [2], in [3], in series [4], in series [5] and in series [6] was below 5.00 each time.
Consider `COc1ccc(/C=C/C(=O)/C=C/c2cc3ccccc3nc2Oc2ccc(Br)cc2)cc1OC`, for which the pIC50 in [1], in [2], in series [3], in series [4], in [5] and in series [6] was below 5.00 throughout.
Take `COc1ccc(/C=C/C(=O)/C=C/c2cc3ccccc3nc2Oc2ccc(Br)cc2)c(OC)c1`: the pIC50 in series [1], in series [2], in series [3], in series [4], in series [5] and in series [6] was below 5.00 in each case.
For `COc1ccc(/C=C/C(=O)/C=C/c2cc3ccccc3nc2Cl)c(OC)c1`, the pIC50 in series [1], in series [2], in series [3], in [4], in series [5] and in series [6] was below 5.00 throughout.

The values are drawn from ChEMBL document CHEMBL4184276, “Curcumin inspired 2-chloro/phenoxy quinoline analogues: Synthesis and biological evaluation as potential anticancer agents” (Bioorg Med Chem Lett, 2018).
